Values quoted from earlier work as cited in patent publication US20090226522A1, “PROCESS TO MINIMIZE POLYMORPHISM” (priority 2008, published 2009).
Where two headings read alike, the source gives them in different places.

In the case of Cc1nnc2n1-c1ccc(Cl)cc1C(c1ccccc1)=NC2 [Alprazolam, 8-chloro-1-methyl-6-phenyl-4H-s-triazolo[4,3-α][1,4]benzodiazepine], the “solubility in methanol or ethanol” value (methanol or ethanol) is listed as “soluble”, the solubility in water (water) is listed as “poorly soluble” and the solubility in water (water at physiological pH) is listed as “no appreciable solubility”.
